Experimental data as given in patent US20230210999A1, “TARGETED PROTEASE DEGRADATION (TED) PLATFORM” (EUBULUS BIOTHERAPEUTICS INC., priority 2020, published 2023).

Legend:
HT-29 cells = experiment: Cell proliferation experiment, HT-29; type: cell-based; conditions: Homo sapiens; HT-29 cells, 72 h; read-out: Inhibitory activity IC50 of tested compounds on HT-29 cells
Experimental: (§1) Reagents: RPMI-1640 medium, McCoy's 5A medium, IMDM medium, MEM medium, L-15 medium, fetal bovine serum. Penicillin-Streptomycin double antibody, trypsin, etc., 2-mercaptoethanol, NEAA, pyruvate, etc.
(§2) The cells were cultured in conventional ways, and the cells should be passed at least 2 generations before plating. Cells at the logarithmic growth phase were collected, prepared into single cell suspensions and counted. The concentration of cells was adjusted to the desired concentration, and cells were inoculated into a 96-well cell culture plate at 100 μl per well. 100 μL of complete medium of the test compound were added to each well, set up 2 duplicate wells for each concentration, and diluted with a 5-fold gradient, and continued to culture for 72 h. All cells were subjected to IC50 test for corresponding samples. The experimental results are shown in Test Example 4.
(§3) The fluorescence intensity of each well was detected using the Alarm blue method, and IC50 was calculated.
(§4) IC50 was calculated according to the following formula:
(§5) Y=Max+(Min−Max)/[1+(X/IC50)×Slope]
(§6) wherein Min, Max and Slope represent the minimum, maximum and slope respectively.

U-87MG cells = experiment: Cell proliferation experiment, U-87MG; type: cell-based; conditions: Homo sapiens; U-87MG cells, 72 h; read-out: Inhibitory activity IC50 of tested compounds on U-87MG cells
Experimental: as §1, §2, §3, §4, §5, §6

MV4;11 cells = experiment: Cell proliferation experiment (Alamar blue, 72 h), MV4;11; type: cell-based, human; conditions: Homo sapiens, MV4-11, 72 h, MV4;11 cells, 72 h; read-out: Inhibitory activity IC50 of tested compounds on MV4;11 cells
Procedure, shortened: (§7)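 Log-phase cells were seeded in 96-well plates and exposed to compound in complete medium over a 5-fold dilution series, in duplicate, for 72 h. Alamar blue fluorescence was read per well and IC50 was obtained by four-parameter curve fitting.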

NCIH82 cells = experiment: Cell proliferation experiment, NCI-H82; type: cell-based, human; conditions: Homo sapiens, NCI-H82, 72 h, NCIH82 cells, 72 h; read-out: Inhibitory activity IC50 of tested compounds on NCIH82 cells
Procedure, shortened: as §7

HUVEC cells = experiment: Cell proliferation experiment, HUVEC; type: cell-based; conditions: Homo sapiens, 72 h, read-out: Inhibitory activity IC50 of tested compounds on HUVEC cells
Experimental: as §1, §2, §3, §4, §5, §6

Daudi cells = experiment: Cell proliferation experiment, Daudi; type: cell-based, human; conditions: Homo sapiens, Daudi, 72 h, Daudi cells, 72 h; read-out: Inhibitory activity IC50 of tested compounds on Daudi cells
Procedure, shortened: as §7

HL-60 cells = experiment: Cell proliferation experiment, HL-60; type: cell-based; conditions: Homo sapiens, 72 h, read-out: Inhibitory activity IC50 of tested compounds on HL-60 cells
Experimental: as §1, §2, §3, §4, §5, §6

| Compound | IC50 (HT-29 cells) [nM] | IC50 (U-87MG cells) [nM] | IC50 (MV4;11 cells) [nM] | IC50 (NCIH82 cells) [nM] | IC50 (HUVEC cells) [nM] | IC50 (Daudi cells) [nM] | IC50 (HL-60 cells) [nM] |
| --- | --- | --- | --- | --- | --- | --- | --- |
| CC[C@@H]1C(=O)N(C)c2cnc(Nc3ccc(C(=O)NCCCNCCCOCCC#Cc4cccc5c4CN(C4CCC(=O)NC4=O)C5=O)cc3OC)nc2N1C1CCCC1 (stereo partly shown) [Compound 921] | > 1000 | 100 to 500 | ≤ 100 | > 1000 | ≤ 1000 | 100 to 1000 |  |
| CC[C@@H]1C(=O)N(C)c2cnc(Nc3ccc(C(=O)NC4CCN(CCOCCCC#Cc5cccc6c5CN(C5CCC(=O)NC5=O)C6=O)CC4)cc3OC)nc2N1C1CCCC1 (stereo partly shown) [Compound 902] | ≤ 300 | ≤ 100 |  | ≤ 1000 |  | ≤ 100 | ≤ 1000 |
| CC[C@@H]1C(=O)N(C)c2cnc(Nc3ccc(C(=O)NC4CCN(CCNCCCOCCCC#Cc5cccc6c5CN(C5CCC(=O)NC5=O)C6=O)CC4)cc3OC)nc2N1C1CCCC1 (stereo partly shown) [Compound 899] | ≤ 300 | ≤ 100 | ≤ 100 | ≤ 1000 |  | ≤ 100 | ≤ 1000 |
| CC[C@@H]1C(=O)N(C)c2cnc(Nc3ccc(C(=O)NC4CCC(N5CCN(CCCC(=O)NC#Cc6cccc7c6CN(C6CCC(=O)NC6=O)C7=O)CC5)CC4)cc3OC)nc2N1C1CCCC1 (stereo partly shown) [Compound 926] | 300 to 1000 | 100 to 500 | ≤ 100 | ≤ 1000 | ≤ 1000 | ≤ 100 |  |
| CC[C@@H]1C(=O)N(C)c2cnc(Nc3ccc(C(=O)NC4CCN(CCCNCCOCCC#Cc5cccc6c5CN(C5CCC(=O)NC5=O)C6=O)CC4)cc3OC)nc2N1C1CCCC1 (stereo partly shown) [Compound 905] | > 1000 | 100 to 500 | ≤ 100 | > 1000 |  |  | ≤ 1000 |
| CC[C@@H]1C(=O)N(C)c2cnc(Nc3ccc(C(=O)NC4CCN(CCN(C)CCCOCCCC#Cc5cccc6c5CN(C5CCC(=O)NC5=O)C6=O)CC4)cc3OC)nc2N1C1CCCC1 (stereo partly shown) [Compound 900] | ≤ 300 | ≤ 100 | ≤ 100 | ≤ 1000 |  | ≤ 100 | ≤ 1000 |
| CC[C@@H]1C(=O)N(C)c2cnc(Nc3ccc(C(=O)NC4CCN(CCCOCCN(C)CCCC#Cc5cccc6c5CN(C5CCC(=O)NC5=O)C6=O)CC4)cc3OC)nc2N1C1CCCC1 (stereo partly shown) [Compound 924] | ≤ 300 | 100 to 500 | ≤ 100 | ≤ 1000 | ≤ 1000 | ≤ 100 |  |
| CC[C@@H]1C(=O)N(C)c2cnc(Nc3ccc(C(=O)NC4CCN(CCCNCCCOCCCC#Cc5cccc6c5CN(C5CCC(=O)NC5=O)C6=O)CC4)cc3OC)nc2N1C1CCCC1 (stereo partly shown) [Compound 901] | 300 to 1000 | 100 to 500 | ≤ 100 | ≤ 1000 |  |  | ≤ 1000 |
| CC[C@@H]1C(=O)N(C)c2cnc(Nc3ccc(C(=O)NCCCOCCN(C)CCC#Cc4cccc5c4CN(C4CCC(=O)NC4=O)C5=O)cc3OC)nc2N1C1CCCC1 (stereo partly shown) [Compound 927] | ≤ 300 | ≤ 100 | ≤ 100 | ≤ 1000 | ≤ 1000 | ≤ 100 |  |
| CC[C@@H]1C(=O)N(C)c2cnc(Nc3ccc(C(=O)NCCCOCCOCCN(C)CCC#Cc4cccc5c4CN(C4CCC(=O)NC4=O)C5=O)cc3OC)nc2N1C1CCCC1 (stereo partly shown) [Compound 920] | 300 to 1000 | ≤ 100 | ≤ 100 | ≤ 1000 | ≤ 1000 | ≤ 100 |  |
| CC[C@@H]1C(=O)N(C)c2cnc(Nc3ccc(C(=O)NCCCOCCCOCCN(C)CCC#Cc4cccc5c4CN(C4CCC(=O)NC4=O)C5=O)cc3OC)nc2N1C1CCCC1 (stereo partly shown) [Compound 930] | ≤ 300 | ≤ 100 | ≤ 100 | ≤ 1000 | ≤ 1000 | ≤ 100 |  |
| CC[C@@H]1C(=O)N(C)c2cnc(Nc3ccc(C(=O)NC4CCN(CCCCN(C)CCCC#Cc5cccc6c5CN(C5CCC(=O)NC5=O)C6=O)CC4)cc3OC)nc2N1C1CCCC1 (stereo partly shown) [Compound 923] | ≤ 300 | 100 to 500 | ≤ 100 | ≤ 1000 | ≤ 1000 | ≤ 100 |  |
| CC[C@@H]1C(=O)N(C)c2cnc(Nc3ccc(C(=O)NC4CCN(CCN(C)CCCOCCC#Cc5cccc6c5CN(C5CCC(=O)NC5=O)C6=O)CC4)cc3OC)nc2N1C1CCCC1 (stereo partly shown) [Compound 932] | ≤ 300 | ≤ 100 | ≤ 100 | ≤ 1000 | ≤ 1000 | ≤ 100 |  |
| CC[C@@H]1C(=O)N(C)c2cnc(Nc3ccc(C(=O)NC4CCN(CCNCCCOCCC#Cc5cccc6c5CN(C5CCC(=O)NC5=O)C6=O)CC4)cc3OC)nc2N1C1CCCC1 (stereo partly shown) [Compound 903] | 300 to 1000 | ≤ 100 | ≤ 100 | ≤ 1000 |  | ≤ 100 | ≤ 1000 |
| CC[C@@H]1C(=O)N(C)c2cnc(Nc3ccc(C(=O)NC4CCN(C5CN(CCC#Cc6cccc7c6CN(C6CCC(=O)NC6=O)C7=O)C5)CC4)cc3OC)nc2N1C1CCCC1 (stereo partly shown) [Compound 928] | ≤ 300 | ≤ 100 | ≤ 100 | ≤ 1000 | ≤ 1000 | ≤ 100 |  |
| CC[C@@H]1C(=O)N(C)c2cnc(Nc3ccc(C(=O)NC4CCC(N5CCN(CCCNCCC#Cc6cccc7c6CN(C6CCC(=O)NC6=O)C7=O)CC5)CC4)cc3OC)nc2N1C1CCCC1 (stereo partly shown) [Compound 933] | 300 to 1000 | 100 to 500 | ≤ 100 | ≤ 1000 | ≤ 1000 | 100 to 1000 |  |
| CC[C@@H]1C(=O)N(C)c2cnc(Nc3ccc(C(=O)NC4CCN(CCCNCCCOCCC#Cc5cccc6c5CN(C5CCC(=O)NC5=O)C6=O)CC4)cc3OC)nc2N1C1CCCC1 (stereo partly shown) [Compound 904] | > 1000 | 500 to 1000 | ≤ 100 | > 1000 |  |  | ≤ 1000 |
| CC[C@@H]1C(=O)N(C)c2cnc(Nc3ccc(C(=O)NC4CCN(CCOCCCNCCCC#Cc5cccc6c5CN(C5CCC(=O)NC5=O)C6=O)CC4)cc3OC)nc2N1C1CCCC1 (stereo partly shown) [Compound 915] | 300 to 1000 | 100 to 500 | ≤ 100 | ≤ 1000 |  | ≤ 100 |  |
| CC[C@@H]1C(=O)N(C)c2cnc(Nc3ccc(C(=O)NC4CCN(CCCOCCCN(C)CCCC#Cc5cccc6c5CN(C5CCC(=O)NC5=O)C6=O)CC4)cc3OC)nc2N1C1CCCC1 (stereo partly shown) [Compound 919] | 300 to 1000 | 100 to 500 | ≤ 100 | ≤ 1000 | ≤ 1000 | ≤ 100 |  |
| CC[C@@H]1C(=O)N(C)c2cnc(Nc3ccc(C(=O)NC4CCN(CCOCCN5CC(Nc6cccc7c6C(=O)N(C6CCC(=O)NC6=O)C7=O)C5)CC4)cc3OC)nc2N1C1CCCC1 (stereo partly shown) [Compound 868] | > 1000 | 500 to 1000 | 100 to 1000 | ≤ 1000 |  | 100 to 1000 |  |
| CC[C@@H]1C(=O)N(C)c2cnc(Nc3ccc(C(=O)NC4CCN(CCCOCCCNCCCC#Cc5cccc6c5CN(C5CCC(=O)NC5=O)C6=O)CC4)cc3OC)nc2N1C1CCCC1 (stereo partly shown) [Compound 917] | 300 to 1000 | 100 to 500 | ≤ 100 | ≤ 1000 |  | ≤ 100 |  |
| CC[C@@H]1C(=O)N(C)c2cnc(Nc3ccc(C(=O)NC4CCN(CCCCN(C)CCC#Cc5cccc6c5CN(C5CCC(=O)NC5=O)C6=O)CC4)cc3OC)nc2N1C1CCCC1 (stereo partly shown) [Compound 910] | ≤ 300 | 100 to 500 | ≤ 100 | ≤ 1000 |  | ≤ 100 |  |
| CC[C@@H]1C(=O)N(C)c2cnc(Nc3ccc(C(=O)NC4CCN(CCCNCCOCCCC#Cc5cccc6c5CN(C5CCC(=O)NC5=O)C6=O)CC4)cc3OC)nc2N1C1CCCC1 (stereo partly shown) [Compound 907] | 300 to 1000 | 100 to 500 | ≤ 100 | ≤ 1000 |  | ≤ 100 |  |
| CC[C@@H]1C(=O)N(C)c2cnc(Nc3ccc(C(=O)NCCCN(C)CCOCCC#Cc4cccc5c4CN(C4CCC(=O)NC4=O)C5=O)cc3OC)nc2N1C1CCCC1 (stereo partly shown) [Compound 886] | > 1000 | ≤ 100 | ≤ 100 | > 1000 |  | 100 to 1000 |  |
| CC[C@@H]1C(=O)N(C)c2cnc(Nc3ccc(C(=O)NC4CCN(CCCCNCCCC#Cc5cccc6c5CN(C5CCC(=O)NC5=O)C6=O)CC4)cc3OC)nc2N1C1CCCC1 (stereo partly shown) [Compound 922] | 300 to 1000 | 100 to 500 | ≤ 100 | ≤ 1000 | ≤ 1000 | 100 to 1000 |  |
| CC[C@@H]1C(=O)N(C)c2cnc(Nc3ccc(C(=O)NCCC#Cc4cccc5c4CN(C4CCC(=O)NC4=O)C5=O)cc3OC)nc2N1C1CCCC1 (stereo partly shown) [Compound 891] | 300 to 1000 | 100 to 500 | 100 to 1000 | ≤ 1000 |  |  | ≤ 1000 |
